Reference: US4904660A, “Histidine derivatives as superior renin inhibitors” (Yamanouchi Pharmaceutical Co., Ltd., priority 1987, dated 1990)

What follows are molecules tested against T1, human plasma renin (Homo sapiens, UniProt P00797) (assay: Inhibiting effect to human plasma renin). Conditions: angiotensin I formation by radio-immunoassay, 37° C., 2 hours, pH4.6, read-out: IC50 /human plasma (50% inhibiting concentration).
T1 construct: Into human plasma; from tissue; host or cells: human plasma
T1 sequence (P00797 67-406): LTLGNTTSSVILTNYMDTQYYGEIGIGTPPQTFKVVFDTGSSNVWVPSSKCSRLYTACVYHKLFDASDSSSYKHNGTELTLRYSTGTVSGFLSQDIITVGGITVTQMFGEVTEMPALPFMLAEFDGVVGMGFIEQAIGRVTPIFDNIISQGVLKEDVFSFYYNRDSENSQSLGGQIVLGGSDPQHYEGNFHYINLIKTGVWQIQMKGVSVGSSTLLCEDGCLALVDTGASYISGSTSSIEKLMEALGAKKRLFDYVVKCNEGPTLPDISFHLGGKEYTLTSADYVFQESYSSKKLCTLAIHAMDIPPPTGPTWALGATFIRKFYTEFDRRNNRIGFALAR
Type: biochemical
Experimental: (1) Inhibiting effect to human plasma renin.
Into human plasma (250 μl) having 0.5 ng/ml/hr (37° C.)-angiotensin I forming activity was added 225 μl of an enzyme-inhibitor (BAL, […], pH4.6) and 25 μl of a solution of the test compound in dimethylsulfoxide, and the mixture was stirred. Some portion of the stirred mixture was subjected to incubation at 37° C. for 2 hours, and the rest of the mixture was left at 4° C. Taking 100 μl of each of the mixtures, by measuring the difference of the angiotensin I forming amount by radio-immunoassay at 37° C. and 4° C., the 50% inhibiting concentration IC50 (M) was calculated.

IC50 | SMILES
4 nM | Cn1nnnc1SCC(O)[C@H](CC1CCCCC1)NC(=O)[C@H](Cc1cnc[nH]1)NC(=O)[C@H](Cc1ccccc1)NC(=O)OC(C)(C)C (stereo partly drawn) [Example 9]
4 nM | CC(C)OC(=O)C(O)[C@H](CC1CCCCC1)NC(=O)[C@H](Cc1c[nH]cn1)NC(=O)C(CC(=O)N1CCOCC1)Cc1cccc2ccccc12 (stereo partly drawn) [Example 40]
0.5 nM | Cn1nnnc1SCC(O)[C@H](CC1CCCCC1)NC(=O)[C@H](Cc1cnc[nH]1)NC(=O)C(CC(=O)N1CCOCC1)Cc1cccc2ccccc12 (stereo partly drawn) [Example 7, (2RS,3S)-3-[N-[1,4-dioxo-4-morpholino-2-(1-naphthylmethyl)butyl-L-histidylamino)]-4-cyclohexyl-1-(1-methyl-5-tetrazolylthio]-2-butanol]
